According to patent US4644085A, “Rooperol and its derivates” (Rooperol (NA) NV, priority 1985, dated 1987):
Converted amounts (≈) assume the structure as drawn.

How the values were obtained:
[1] = system: cancer; settings: reported in EPO Patent Application No. 83103765.0; cited from earlier work
[2] = system: MOUSE SARCOMA M(52)B; assay: Inhibition of cell growth: mouse sarcoma M(52)B; type: cell-based; settings: 96 h, media, usually four days, read-out: MINIMUM INHIBITORY CONCENTRATIONS (RANGE) WHICH PRODUCE APPROXIMATELY 50% CELL GROWTH REDUCTION
Method: (§1) The cell cultures were grown under standard conditions at 37° C. in Eagle's Minimal Essential Medium (M.E.M., Gibco), with glutamine and non-essential amino acids, supplemented with 10% foetal calf serum (State Vaccine Institute, Cape Town). Cells for subcultures were obtained from 90-100% confluent cell cultures by trypsinisation with Ca^++ Mg^++ --free EDTA-Dulbecco Buffer, containing 0.25% trypsin. Trypsin was inactivated by placing the harvested cell suspension into M.E.M. containing 10% foetal calf serum. The cell suspensions were then suitably diluted to the final volume, depending on the number of cells obtained and the growth profile of the cell type. The diluted cell suspensions were then dispensed at the rate of 1.0 ml into prepared cell culture flasks containing 8.9 ml culture media. These cultures were incubated for 24 hours and the media changed before adding the test compounds.
(§2) The test compounds were dissolved in dimethylsulphoxide (Merck) and added at the rate of 0.1 ml to the media in a dilution to give the desired end concentration.
(§3) In each series of experiments, control cultures were treated with equivalent amounts of solvent without the test compound. The cultures were examined daily usually for a period of four days and cell growth and other cytopathic effects were records. Abnormal cell patterns and sizes were also determined during counting.
(i) M (52) B Mouse Sarcoma

[3] = system: HUMAN […] HOC; assay: Inhibition of cell growth: human oesophagal carcinoma HOC; type: cell-based; settings: 96 h, read-out: MINIMUM INHIBITORY CONCENTRATIONS (RANGE) WHICH PRODUCE APPROXIMATELY 50% CELL GROWTH REDUCTION
Method: as §1, §2, §3
(iii) HOC Human Oesophagal Carcinoma

[4] = system: CHANG CO[…] No. CCL20.2; assay: Inhibition of cell growth: Chang conjunctival; type: cell-based; settings: 96 h, read-out: MINIMUM INHIBITORY CONCENTRATIONS (RANGE) WHICH PRODUCE APPROXIMATELY 50% CELL GROWTH REDUCTION
Method: as §1, §2, §3
(vii) Chang Chang Conjunctival cells

[5] = system: P27-HUMAN MESOTHELIOMA; assay: Inhibition of cell growth: P27 human mesothelioma; type: cell-based; settings: 96 h, media, usually four days, read-out: MINIMUM INHIBITORY CONCENTRATIONS (RANGE) WHICH PRODUCE APPROXIMATELY 50% CELL GROWTH REDUCTION
Method: as §1, §2, §3
(v) P27 Human Mesothelioma Cells

[6] = system: HUMAN CERVICAL CANCER HeLa ATCC No. CCL2; assay: Inhibition of cell growth: human cervical cancer HeLa; type: cell-based; settings: 96 h, media, usually four days, read-out: MINIMUM INHIBITORY CONCENTRATIONS (RANGE) WHICH PRODUCE APPROXIMATELY 50% CELL GROWTH REDUCTION
Method: as §1, §2, §3
(iv) HeLa Human Cervical Cancer

[7] = system: MOUSE MELANOMA B16-BL6; assay: Inhibition of cell growth: mouse melanoma B16-BL6; type: cell-based; settings: 96 h, media, usually four days, read-out: MINIMUM INHIBITORY CONCENTRATIONS (RANGE) WHICH PRODUCE APPROXIMATELY 50% CELL GROWTH REDUCTION
Method: as §1, §2, §3
(ii) Mel B16 BL06 Mouse Melanoma

[8] = system: "LOOT'S" CELLS HUMAN ADENOCARCINOMA; assay: Inhibition of cell growth: "Loot's" cells human adenocarcinoma; type: cell-based; settings: 96 h, media, usually four days, read-out: MINIMUM INHIBITORY CONCENTRATIONS (RANGE) WHICH PRODUCE APPROXIMATELY 50% CELL GROWTH REDUCTION
Method: as §1, §2, §3
(vi) "Loots" cells Human Derived Adenocarcinoma

[9] = Acute toxicity in rats; settings: rat, in vivo, po, P.O., single dose in vegetable oil, 7 days observation, read-out: MINIMUM TOLERATED SINGLE DOSE
Method: (§4) Some compounds were subjected to preliminary acute toxicity tests in mice and rats. Solutions or suspensions of the selected compounds were prepared in vegetable oil. The volumes administered were kept constant at 10.0 ml per kg. In each case equal numbers of male and female animals were treated with a single dose. All animals were observed over 7 days for signs of toxic and/or pharmacodynamic effects. Necropsies were performed on all surviving animals.

[10] = Acute toxicity in mice; settings: mouse, in vivo, po, P.O., single dose in vegetable oil, 7 days observation, read-out: MINIMUM TOLERATED SINGLE DOSE
Method: as §4

OC[C@H]1O[C@@H](Oc2ccc(C#CC/C=C/c3ccc(O[C@@H]4O[C@H](CO)[C@@H](O)[C@H](O)[C@H]4O)c(O)c3)cc2O)[C@H](O)[C@@H](O)[C@@H]1O [Hypoxoside, (E)-1,5-bis(3',4'-dihydroxyphenyl)pent-4-en-1-yne 4',4'-di-B-D-glucopyranoside]
anticancer activity [1]: has anticancer activity

Oc1ccc(C#CC/C=C/c2ccc(O)c(O)c2)cc1O [Product 1, 3',3',4',4',-tetrahydroxyrooperol]
IC50 [2]: 12.5 to 25 µg/mL (≈ 44.3 to 88.6 µM) | IC50 [3]: 25 to 50 µg/mL (≈ 88.6 to 177 µM) | IC50 [4]: 20 to 25 µg/mL (≈ 70.8 to 88.6 µM) | IC50 [5]: 10 to 25 µg/mL (≈ 35.4 to 88.6 µM) | IC50 [6]: 20 to 40 µg/mL (≈ 70.8 to 142 µM) | IC50 [7]: 10 to 25 µg/mL (≈ 35.4 to 88.6 µM) | IC50 [8]: 12.5 to 25 µg/mL (≈ 44.3 to 88.6 µM)

C=CCC#Cc1ccccc1 [Product 2]
IC50 [3]: 50 to 100 µg/mL (≈ 352 to 703 µM) | MTD at 168 h [9]: 500 mg/kg | IC50 [6]: 50 to 75 µg/mL (≈ 352 to 527 µM) | MTD at 168 h [10]: ≥ 1000 mg/kg

C(#Cc1ccccc1)C/C=C/c1ccccc1 [Product 3]
IC50 [2]: 50 to 75 µg/mL (≈ 229 to 344 µM) | IC50 [3]: 25 to 50 µg/mL (≈ 115 to 229 µM) | IC50 [5]: 25 to 50 µg/mL (≈ 115 to 229 µM) | MTD at 168 h [9]: 1500 mg/kg | IC50 [6]: 40 to 60 µg/mL (≈ 183 to 275 µM) | MTD at 168 h [10]: 500 mg/kg

COc1ccc(C#CC/C=C/c2ccc(OC)cc2)cc1 [Product 5]
IC50 [3]: ≥ 25 µg/mL

COc1ccc(C#CC/C=C/c2ccccc2)cc1 [Product 6]
IC50 [3]: 10 to 20 µg/mL (≈ 40.3 to 80.5 µM) | IC50 [6]: 60 to 100 µg/mL (≈ 242 to 403 µM)

C(#Cc1ccc2c(c1)OCO2)C/C=C/c1ccc2c(c1)OCO2 [Product 7]
IC50 [2]: 60 to 80 µg/mL (≈ 196 to 261 µM)

COc1ccc(C#CC/C=C/c2ccc(OC)c(OC)c2)cc1OC [Product 8]
IC50 [2]: 60 to 80 µg/mL (≈ 177 to 236 µM) | IC50 [5]: 40 to 60 µg/mL (≈ 118 to 177 µM) | IC50 [6]: 60 to 100 µg/mL (≈ 177 to 296 µM)

COc1ccc(C#CC/C=C/c2ccccc2)cc1OC [Product 9]
IC50 [6]: 60 to 100 µg/mL (≈ 216 to 359 µM)

Brc1ccc(C#CC/C=C/c2ccccc2)cc1 [Product 10]
IC50 [6]: 25 to 50 µg/mL (≈ 84.1 to 168 µM)

OC(CCl)CC#Cc1ccccc1 (centres unmarked) [Product 11]
IC50 [6]: 25 to 50 µg/mL (≈ 128 to 257 µM) | MTD at 168 h [10]: ≥ 1000 mg/kg

C=CCC#CCOC1CCCCO1 (centres unmarked) [Product 13]
IC50 [6]: 50 to 100 µg/mL (≈ 277 to 555 µM)

COc1ccc(C#CC(O)/C=C/c2ccco2)cc1OC (centres unmarked) [Product 15]
IC50 [6]: 25 to 50 µg/mL (≈ 87.9 to 176 µM)

OC(C#Cc1ccccc1)/C=C/c1ccccc1 (centres unmarked) [Product 16]
IC50 [2]: 20 to 40 µg/mL (≈ 85.4 to 171 µM) | IC50 [5]: 25 to 50 µg/mL (≈ 107 to 213 µM) | MTD at 168 h [9]: 500 mg/kg | IC50 [6]: 25 to 50 µg/mL (≈ 107 to 213 µM) | IC50 [7]: 20 to 50 µg/mL (≈ 85.4 to 213 µM) | IC50 [8]: 12.5 to 25 µg/mL (≈ 53.4 to 107 µM) | MTD at 168 h [10]: 500 mg/kg

OC(C#Cc1ccccc1)/C=C/c1ccco1 (centres unmarked) [Product 17]
IC50 [5]: 20 to 50 µg/mL (≈ 89.2 to 223 µM) | MTD at 168 h [9]: 500 mg/kg | IC50 [6]: 20 to 25 µg/mL (≈ 89.2 to 111 µM) | MTD at 168 h [10]: 500 mg/kg

COc1ccc(C#CC(O)/C=C/c2ccccc2)cc1OC (centres unmarked) [Product 18]
IC50 [6]: 25 to 50 µg/mL (≈ 84.9 to 170 µM)

OC(C#Cc1ccccc1)C=C(Cl)c1ccccc1 (centres unmarked) [Product 19]
IC50 [6]: 20 to 40 µg/mL (≈ 74.4 to 149 µM) | MTD at 168 h [10]: 250 mg/kg

C=CC(O)C#Cc1ccccc1 (centres unmarked) [Product 20]
IC50 [6]: 25 to 50 µg/mL (≈ 158 to 316 µM)

C/C=C/C(O)C#CCOC1CCCCO1 (centres unmarked) [Product 21]
IC50 [6]: 25 to 50 µg/mL (≈ 119 to 238 µM)

CCOC(=O)C(=Cc1ccccc1)CC#Cc1ccccc1 [Product 23]
IC50 [2]: 75 to 100 µg/mL (≈ 258 to 344 µM) | IC50 [3]: 20 to 50 µg/mL (≈ 68.9 to 172 µM) | IC50 [4]: 25 to 75 µg/mL (≈ 86.1 to 258 µM) | IC50 [6]: 60 to 100 µg/mL (≈ 207 to 344 µM) | IC50 [8]: 25 to 50 µg/mL (≈ 86.1 to 172 µM) | MTD at 168 h [10]: 750 mg/kg

C(#Cc1ccccc1)CC1CO1 (centres unmarked) [Product 24]
IC50 [6]: 25 to 50 µg/mL (≈ 158 to 316 µM)

O=C(C#Cc1ccccc1)/C=C/c1ccccc1 [Product 25]
IC50 [4]: 2.5 to 10 µg/mL (≈ 10.8 to 43.1 µM) | IC50 [6]: 5 to 10 µg/mL (≈ 21.5 to 43.1 µM) | IC50 [7]: 12.5 to 25 µg/mL (≈ 53.8 to 108 µM)

C=CC(=O)C#Cc1ccccc1 [Product 26]
IC50 [4]: 2.5 to 10 µg/mL (≈ 16 to 64 µM) | IC50 [6]: 20 to 40 µg/mL (≈ 128 to 256 µM)

C/C=C/C(O)C#CCO (centres unmarked) [Product 29]
IC50 [6]: 50 µg/mL (≈ 396 µM)

C=CCC#CCO [Product 30]
IC50 [6]: 50 µg/mL (≈ 520 µM)

OCC#CC/C=C/c1ccccc1 [Product 31]
IC50 [6]: 25 to 50 µg/mL (≈ 145 to 290 µM)
